The source of these data is article PMC13376213, “Systematic discovery of motif-based interactions of the auxiliary domains of USP family deubiquitinases” (Nature Communications, 2026).

Assay [1] concerns the target T1, USP33 DUSP2 domain (Homo sapiens, UniProt Q8TEY7).
T1 construct: USP33_DUSP2; Q8TEY7; DUSP2; 806; 921; 6xHis-GST (N, cleaved yes); made in house; host or cells: Escherichia coli BL21-Gold (DE3)
T1 sequence (Q8TEY7 with tags, fused parts or gaps): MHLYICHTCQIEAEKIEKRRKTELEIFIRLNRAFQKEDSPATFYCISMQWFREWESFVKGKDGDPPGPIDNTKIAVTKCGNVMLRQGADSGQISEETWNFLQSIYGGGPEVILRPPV
Nature of the assay: FP-monitored affinity measurements, USP33 DUSP2. In kind it is binding. As to conditions: USP33_DUSP2; direct FP titration (saturation) of the FITC-labelled peptide; read-out: KD. On the procedure: (§1) Proteins were expressed in Escherichia coli (E.coli) BL21-Gold (DE3) bacteria. The cDNAs encoding N-terminal 6-histidine-glutathione S-transferase tagged (6xHis-GST), 6xHis-tagged or GST-tagged protein domains in pETM33, pETM11, pGEX6P1 expression vectors respectively, were obtained from Genescript or kindly provided by MRC-PPU (Suppl. Data 1) The bacteria were transformed with the plasmid and grew at 37 °C in 2YT (5 g/L NaCl, 16 g/L tryptone and 10 g/L yeast extract) supplemented with Kanamycin (30 μg/mL) until reaching an OD600 of 0.7. Protein expression was induced with 0.3 mM isopropyl β-D-1 thiogalactopyranoside (IPTG) for 18 h at 18 °C while shaking. For zinc-finger domains, 50 μM of ZnSO4 was added during expression. The bacterial cultures were pelleted for 15 minutes at 4000 x g at 4 °C and stored at −20 °C until purification. The pellets were resuspended in lysis buffer (1× phosphate-buffered saline (PBS), 0.5 % Triton-X, 5 mM MgCl2, 10 μg/mL lysozyme, cOmplete^TM EDTA-free protease inhibitor cocktail (Roche), 10 μg/mL DNAseI) and incubated for 1 h shaking at 4 °C. […] The supernatant was incubated with glutathione (GSH) Sepharose (Cytiva) or Ni2+ Sepharose (Cytiva) for 1 h at 4 °C while shaking. The beads with the bound protein were washed with 1x PBS and eluted with 10 mM reduced glutathione in 50 mM Tris pH 8.0. For fluorescence polarization experiments, the proteins were not eluted from the beads, and the 6xHis-GST tag was cleaved overnight on GSH Sepharose beads at 4 °C while shaking with PreScission Protease in cleavage buffer (50 mM Tris pH 7.5, 150 mM NaCl, 1 mM DTT). The sample containing the cleaved domain was separated from the tag and protease and buffer-exchanged to 50 mM sodium phosphate buffer pH 7.4 with 1 mM DTT using a PD-10 desalting column (Cytiva). The purity and size of the proteins were analyzed by SDS-PAGE electrophoresis.
(§2) The measurements were performed at room temperature in a non-binding black half area 96-well plate (Corning) with a total volume of 50 μL per well. Peptides were obtained from GeneCust (France) with >95% purity. FITC-labeled peptides (N-terminally FITC-labeled without spacer and C-terminally amidated) were dissolved in dimethyl sulfoxide (DMSO), and unlabeled peptides (N-terminally acetylated and C-terminally amidated) were dissolved in 50 mM phosphate buffer pH 7.4. Saturation measurements were performed using a serial dilution of the protein domains in phosphate buffer (25 μL) and the addition of 10 nM FITC-labeled peptide (in phosphate buffer supplemented with 2 mM DTT) (25 μL). […] All measurements were performed in three technical replicates. The data were analyzed using GraphPad Prism version 9.2.0 for MacOS (GraphPad Software, San Diego, California USA, www.graphpad.com). The saturation curves were fitted to the quadratic equation, and the displacement curves were fitted to a sigmoidal dose-response equation as described previously.

The target of assay [2] is T2, USP33 DUSP2 N835A (Homo sapiens, UniProt Q8TEY7, N835A).
T2 construct: USP33_DUSP2; Q8TEY7; DUSP2; 806; 921; 6xHis-GST (N, cleaved yes); made in house; host or cells: Escherichia coli BL21-Gold (DE3)
T2 sequence (Q8TEY7 806-921 N835A): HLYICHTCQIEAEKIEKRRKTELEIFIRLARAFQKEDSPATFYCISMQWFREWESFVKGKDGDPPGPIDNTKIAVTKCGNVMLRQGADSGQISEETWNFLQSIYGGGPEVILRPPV
Nature of the assay: FP-monitored affinity measurements, USP33 DUSP2 single mutant. The class given is binding. As to conditions: USP33_DUSP2_N835A; direct FP titration (saturation) of the FITC-labelled peptide; read-out: KD. On the procedure: (§3) Proteins were expressed in Escherichia coli (E.coli) BL21-Gold (DE3) bacteria. The cDNAs encoding N-terminal 6-histidine-glutathione S-transferase tagged (6xHis-GST), 6xHis-tagged or GST-tagged protein domains in pETM33, pETM11, pGEX6P1 expression vectors respectively, were obtained from Genescript or kindly provided by MRC-PPU (Suppl. Data 1) The bacteria were transformed with the plasmid and grew at 37 °C in 2YT (5 g/L NaCl, 16 g/L tryptone and 10 g/L yeast extract) supplemented with Kanamycin (30 μg/mL) until reaching an OD600 of 0.7. Protein expression was induced with 0.3 mM isopropyl β-D-1 thiogalactopyranoside (IPTG) for 18 h at 18 °C while shaking. For zinc-finger domains, 50 μM of ZnSO4 was added during expression. […] For fluorescence polarization experiments, the proteins were not eluted from the beads, and the 6xHis-GST tag was cleaved overnight on GSH Sepharose beads at 4 °C while shaking with PreScission Protease in cleavage buffer (50 mM Tris pH 7.5, 150 mM NaCl, 1 mM DTT). […] The purity and size of the proteins were analyzed by SDS-PAGE electrophoresis.
(§4) The measurements were performed at room temperature in a non-binding black half area 96-well plate (Corning) with a total volume of 50 μL per well. […] The data were analyzed using GraphPad Prism version 9.2.0 for MacOS (GraphPad Software, San Diego, California USA, www.graphpad.com). […]

Assay [3] concerns the target T3, USP33 DUSP2 K863E-K865E (Homo sapiens, UniProt Q8TEY7, K863E/K865E).
T3 construct: USP33_DUSP2; Q8TEY7; DUSP2; 806; 921; 6xHis-GST (N, cleaved yes); made in house; host or cells: Escherichia coli BL21-Gold (DE3)
T3 sequence (Q8TEY7 806-921 K863E/K865E): T2 sequence (Q8TEY7 806-921 N835A) with A30N, K58E, K60E
The experiment in a line: FP-monitored affinity measurements, USP33 DUSP2 double mutant. The class given is binding. As to conditions: USP33_DUSP2_K863E/K865E; direct FP titration (saturation) of the FITC-labelled peptide; read-out: KD. On the procedure: as §3, §4

The target of assay [4] is T4, USP11 DUSP-UBL domain (Homo sapiens, UniProt P51784).
T4 construct: USP11_UBL; P51784; UBL; 6xHis-GST (N, cleaved yes); made in house; host or cells: Escherichia coli BL21-Gold (DE3)
T4 sequence (P51784 67-288): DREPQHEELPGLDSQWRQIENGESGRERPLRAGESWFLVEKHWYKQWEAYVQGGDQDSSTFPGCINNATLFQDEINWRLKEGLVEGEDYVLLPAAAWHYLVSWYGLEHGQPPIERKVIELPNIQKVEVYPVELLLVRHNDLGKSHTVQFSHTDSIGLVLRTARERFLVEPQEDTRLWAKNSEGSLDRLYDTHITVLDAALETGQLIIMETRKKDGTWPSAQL
The experiment in a line: FP-based affinity measurements, USP11 DUSP-UBL. The class given is binding. How it is done:
as §1
as §2, with “The saturation curves were fitted to the quadratic equation, and the displacement curves were fitted to a sigmoidal dose-response equation as described previously.” left out

The test system of assay [5] is FLAG-USP20. Nature of the assay: IP-MS of FLAG-USP20 and variants vs empty vector. The class given is cell-based, human. As to conditions: IP-MS, FLAG-USP20-ΔUBP vs EV; comparison bh_2 Sample_Limma_ImpMedInt_USP20_UBP_domain/EV.

Changes are numbered by the printed parent chain. Read-outs that look alike come from different tables or passages of the source. Ends that are not written are not given here. Peptide text beside a SMILES is read from it. * marks the point of attachment. FITC = O=C1OC2(c3ccc(O)cc3Oc3cc(O)ccc32)c2ccc(NC(=S)*)cc21 Bounds are passed on as bounds.

`CSCC[C@H](NC(=S)Nc1ccc2c(c1)C(=O)OC21c2ccc(O)cc2Oc2cc(O)ccc21)C(=O)N[C@@H](CC(=O)O)C(=O)N[C@@H](CC(=O)O)C(=O)N[C@@H](CC(=O)O)C(=O)N[C@@H](Cc1ccccc1)C(=O)N[C@@H](CCC(N)=O)C(=O)N[C@@H](CC(C)C)C(=O)N[C@@H](CCCNC(=N)N)C(=O)N[C@@H](CO)C(=O)N[C@@H](Cc1ccccc1)C(=O)N[C@@H](CC(=O)O)C(=O)N[C@@H](CCC(N)=O)C(=O)N[C@@H](CC(C)C)C(=O)N[C@@H](CO)C(N)=O` [FITC_HIF1A] ({FITC}-MDDDFQLRSFDQLS-NH2): the results for the Kd in assay [1], in assay [2] and in assay [3] were 31.3 µM, ~353 µM and ~319 µM, respectively.

As for Ac-SAVTYPDWIGQSYSEV-NH2 [ORAI1_USP11], in assay [4] (USP11_DUSP_UBL, FP displacement of the FITC-labelled peptide by unlabelled peptide, read-out: KD), the Kd was ~207 µM.

With SAVTYPDWIGQSYSEV [ORAI1_48-63], the dissociation constant (Kd) in assay [4] (competitive FP, technical triplicates, read-out: KD, USP11 DUSP-UBL, unlabeled peptide (competitive binding)) is > 200 µM.

On to TMEM131L, for which the log2_FC in assay [5] came out at 4.636.

One may read the Kd as the constant that tells how readily two partners part at equilibrium.
